Laboratory results taken from patent publication US6124347A, “Chromene derivatives and salts thereof, and pharmaceuticals containing the same” (SSP Co., Ltd., priority 1997, dated 2000).
Converted amounts (≈) assume the structure as drawn.

System: ovolysozyme
Assay: AGE formation inhibitory action (lysozyme dimer formation with xylose, SDS-PAGE, silver staining)
Format: biochemical
Settings: 1 mg/ml ovolysozyme, 100 mM xylose, pH 7.4, 37° C., 21 days; dimer (28.8 Kda) formation relative to control
Experimental: With respect to each test compound, solutions of the test compound in dimethyl sulfoxide, said solutions containing said test compound at various concentrations, were each added together with 1 mg/ml of ovolysozyme and 100 mM of xylose to a phosphate-buffered physiological saline of pH 7.4. Each reaction mixture was then incubated at 37° C. for 21 days. A portion of the reaction mixture, said portion being in a predetermined amount, was then separated by sodium lauryl sulfate-polyacrylamide gel electrophoresis (SDS-PAGE). After the electrophoresis, the gel was treated by silver staining to stain proteins. AGE formation inhibitory action of the test compound was calculated in terms of 50% inhibitory concentration by image-processing and analyzing the degree of formation of the dimer (28.8 Kda) of lysozyme (14.4 Kda) relative to that in a control, that is, a reaction mixture not added with the test compound while making use of NIH Image Ver. 1.55.

Row | IC50 (AGE formation inhibitory action, 50% inhibitory concentration) | Structure (SMILES)
1 | 30 µg/mL (≈ 83.9 µM) | COc1cc(C(O)CNCC2=Cc3ccccc3OC2)cc(OC)c1O (stereo not shown) [Compound 9, 4-{2-[(2H-3-chromenylmethyl)amino]-1-hydroxyethyl}-2,6-dimethoxyphenol]
2 | 3 µg/mL (≈ 8.74 µM) | COc1cccc2c1OCC(CNCC(O)c1ccc(O)c(O)c1)=C2 (stereo not shown) [Compound 15]
3 | 10 µg/mL (≈ 33.6 µM) | Oc1cccc(C(O)CNCC2=Cc3ccccc3OC2)c1 (stereo not shown) [Compound 6]

Row | Structure (SMILES) | IC50 (AGE formation inhibitory action, 50% inhibitory concentration)
4 | N=C(N)NN [Amionoguanidine, aminoguanidine, reference compound] | 30 µg/mL (≈ 405 µM)
